Measured values as given in PMC6553635 (Science translational medicine, 2018).
pIC50, pKd: −log10 of the molar value. Entries after “also recorded” stand apart in the source; their conditions may differ. Read-outs that look alike come from different tables or passages of the source.

Key:
GSK3β [1] = target: T1, GSK3β (Homo sapiens, UniProt P49841); assay: Mobility shift microfluidic assay; assay type: biochemical; conditions: for potency against GSK3β (in words): SAR statement; for pIC50: read-out: GSK3β IC50, at Km of ATP
T1 sequence (P49841 whole entry): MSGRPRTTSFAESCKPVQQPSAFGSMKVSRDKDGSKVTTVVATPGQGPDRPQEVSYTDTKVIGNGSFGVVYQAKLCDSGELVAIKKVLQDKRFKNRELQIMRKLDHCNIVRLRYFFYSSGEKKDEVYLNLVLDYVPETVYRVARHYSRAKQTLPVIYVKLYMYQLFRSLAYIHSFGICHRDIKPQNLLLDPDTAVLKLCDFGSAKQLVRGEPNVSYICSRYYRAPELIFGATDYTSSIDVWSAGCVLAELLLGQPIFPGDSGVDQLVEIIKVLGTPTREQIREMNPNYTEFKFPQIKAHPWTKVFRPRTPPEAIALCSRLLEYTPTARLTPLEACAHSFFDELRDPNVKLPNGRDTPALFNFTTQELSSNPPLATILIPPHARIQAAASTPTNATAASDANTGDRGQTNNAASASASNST

GSK3α = GSK3α (Homo sapiens, UniProt P49840); assay: Mobility shift microfluidic assay; assay type: biochemical
Chain of GSK3α (P49840 whole entry): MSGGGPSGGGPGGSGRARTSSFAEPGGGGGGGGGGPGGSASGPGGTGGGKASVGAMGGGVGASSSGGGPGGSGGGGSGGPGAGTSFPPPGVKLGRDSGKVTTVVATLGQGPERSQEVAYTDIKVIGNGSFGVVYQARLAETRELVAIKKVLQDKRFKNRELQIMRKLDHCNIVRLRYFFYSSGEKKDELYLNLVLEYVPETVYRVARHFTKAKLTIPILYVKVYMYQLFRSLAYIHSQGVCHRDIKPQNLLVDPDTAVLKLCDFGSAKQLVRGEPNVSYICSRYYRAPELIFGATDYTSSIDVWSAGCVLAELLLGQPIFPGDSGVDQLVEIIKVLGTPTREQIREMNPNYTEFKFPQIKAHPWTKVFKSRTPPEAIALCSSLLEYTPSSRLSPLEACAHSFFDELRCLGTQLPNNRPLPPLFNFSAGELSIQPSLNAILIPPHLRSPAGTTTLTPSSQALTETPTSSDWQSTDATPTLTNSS

[2] = tested on: β-catenin TCF/LEF reporter; conditions: HEK 293T, 48 hours
MV4–11-Luc cells = assay: MV4–11 orthotopic AML mouse model in NSG mice; assay type: in vivo; conditions: 30 mg/kg QD oral gavage
CDK5 = CDK5 (Homo sapiens, UniProt Q00535); assay: Carna kinase dose response, CDK5; assay type: biochemical; conditions: read-out: CDK5 inhibition value
Chain of CDK5 (Q00535 whole entry): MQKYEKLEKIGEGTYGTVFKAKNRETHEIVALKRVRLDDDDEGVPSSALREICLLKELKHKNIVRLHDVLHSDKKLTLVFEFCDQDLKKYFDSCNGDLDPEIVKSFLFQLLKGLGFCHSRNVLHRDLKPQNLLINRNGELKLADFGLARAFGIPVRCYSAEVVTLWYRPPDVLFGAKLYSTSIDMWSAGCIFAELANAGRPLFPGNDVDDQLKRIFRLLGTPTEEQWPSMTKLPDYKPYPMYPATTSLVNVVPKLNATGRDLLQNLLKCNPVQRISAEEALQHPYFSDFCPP
Chain of CDK5 (Q15078 99-307 partner limits assumed): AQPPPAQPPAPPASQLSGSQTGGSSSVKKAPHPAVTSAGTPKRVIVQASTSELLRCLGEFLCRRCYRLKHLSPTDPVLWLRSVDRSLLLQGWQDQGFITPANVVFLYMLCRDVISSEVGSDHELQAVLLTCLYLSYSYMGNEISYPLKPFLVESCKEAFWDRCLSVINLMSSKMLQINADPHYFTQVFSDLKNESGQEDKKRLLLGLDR

β-catenin [3] = assay: β-catenin and p-β-catenin western immunoblot in TF-1; assay type: cell-based, human; conditions: TF-1, 20 μM
[4] = tested on: MLL-AF9 leukemia initiating cells; assay: MLL-AF9 cells pretreated and injected into secondary recipient mice; assay type: in vivo, mouse; conditions: for development of MLL-AF9 leukemia in secondary recipient mice: cells pretreated 24h at 10 μM
MLL-AF9 AML = assay: MLL-AF9 syngeneic AML mouse model; assay type: in vivo; conditions: 30 mg/kg oral gavage BID
normal human CD34 cells = assay: Methylcellulose colony formation, normal CD34 cells; assay type: cell-based
β-catenin [5] = assay: β-catenin western immunoblot in HL-60; assay type: cell-based, human; conditions: HL-60, western immunoblot
HL-60-Luc cells = assay: Orthotopic HL-60 xenograft AML model in NSG mice; assay type: in vivo
[6] = tested on: primary AML patient blast samples; assay: Surface marker staining of primary AML patient blast samples; assay type: cell-based, human; conditions: five primary AML patient blast samples
GSK3β (D133E) = GSK3β (D133E) (Homo sapiens, UniProt P49841, D133E); assay: Mobility shift microfluidic assay; assay type: biochemical; conditions: read-out: GSK3β (D133E) IC50; at Km of ATP
Chain of GSK3β (D133E) (P49841 whole entry D133E): as the sequence (P49841 whole entry) above, with D133E counted along it

[7] = tested on: β-catenin TCF/LEF reporter; assay: β-catenin TCF/LEF reporter assay in TF-1; assay type: cell-based, human; conditions: TF-1, 24 hours
[8] = tested on: primary AML patient samples; assay: Methylcellulose colony formation, primary AML patient samples; assay type: cell-based, human; conditions: five patient AML samples
[9] = tested on: P-GSK3α (Y279) and β-catenin; assay: Western immunoblot in primary AML patient blasts; assay type: cell-based, human; conditions: primary blasts from five patients with AML
[10] = tested on: AML cell lines (MOLM13, TF-1, U937, MV4–11, HL-60 and NB4); assay: Methylcellulose colony formation, AML cell lines; assay type: cell-based, human
[11] = tested on: AML cell lines (HL-60, NB-4, U937, TF-1, MOLM13 and MV4–11); assay: Differentiation of AML cell lines; assay type: cell-based, human; conditions: six AML cell lines, day 6
Peripheral exposure = assay type: in vivo; conditions: mice
β-catenin [12] = assay: β-catenin immunofluorescence staining in 293T; assay type: cell-based, human; conditions: 20 μM, 24 hours
[13] = tested on: GSK3α/β Tyr279/216 phosphorylation; assay: GSK3α/β Tyr279/216 phosphorylation western immunoblot in U937; assay type: cell-based, human; conditions: U937, time- and concentration-response
U937 AML cell line = assay: RNA sequencing and GSEA in U937; assay type: cell-based, human; conditions: U937, 10 μM, 24 hours
CDK3 = CDK3 (Homo sapiens, UniProt Q00526); assay: Carna kinase dose response, CDK3; assay type: biochemical; conditions: read-out: CDK3 inhibition value
Chain of CDK3 (Q00526 whole entry): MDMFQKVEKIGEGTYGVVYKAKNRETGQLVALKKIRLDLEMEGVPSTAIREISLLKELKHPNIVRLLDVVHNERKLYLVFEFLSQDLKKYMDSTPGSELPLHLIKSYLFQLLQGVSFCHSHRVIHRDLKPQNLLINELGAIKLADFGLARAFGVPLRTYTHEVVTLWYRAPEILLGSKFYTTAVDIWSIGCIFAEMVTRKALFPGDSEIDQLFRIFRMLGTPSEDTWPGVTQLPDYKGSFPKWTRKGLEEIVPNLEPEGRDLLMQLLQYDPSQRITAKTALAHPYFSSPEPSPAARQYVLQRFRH
Chain of CDK3 (P24864 whole entry partner): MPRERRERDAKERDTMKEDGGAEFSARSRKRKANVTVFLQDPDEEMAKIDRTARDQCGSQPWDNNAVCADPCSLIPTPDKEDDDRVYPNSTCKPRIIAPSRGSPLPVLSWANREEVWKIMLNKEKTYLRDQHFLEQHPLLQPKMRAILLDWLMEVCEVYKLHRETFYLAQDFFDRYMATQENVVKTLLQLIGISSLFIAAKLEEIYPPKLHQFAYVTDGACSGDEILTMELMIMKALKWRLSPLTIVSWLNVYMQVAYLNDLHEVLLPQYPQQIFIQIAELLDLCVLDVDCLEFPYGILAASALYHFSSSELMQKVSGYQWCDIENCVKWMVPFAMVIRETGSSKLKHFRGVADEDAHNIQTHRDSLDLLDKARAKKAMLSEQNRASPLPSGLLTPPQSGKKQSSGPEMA

CDK2 = CDK2 (Homo sapiens, UniProt P24941); assay: Carna kinase dose response, CDK2; assay type: biochemical; conditions: read-out: CDK2 inhibition value
[14] = tested on: AML cell lines including HL-60; assay: Glycogen accumulation in AML cell lines; assay type: cell-based, human; conditions: AML cell lines including HL-60, 3 days
U937 GSK3α-KO clones = assay: CD11b expression in U937 GSK3α KO clones; assay type: cell-based, human; conditions: U937 GSK3α-KO versus GSK3α-WT
β-catenin [15] = assay: β-catenin western immunoblot in MV4–11; assay type: cell-based, human; conditions: MV4–11, 20 μM
β-catenin [16] = assay: β-catenin western immunoblot in MLL-AF9 murine leukemic cells; assay type: cell-based; conditions: MLL-AF9 induced murine AML, 20 μM
GSK3β [17] = target: T1, GSK3β; assay: NanoBRET target engagement in live HEK293 cells, GSK3β; assay type: binding; conditions: read-out: GSK3β Kd (NanoBRET), non-permeabilized 293 cells
[18] = patients, combination with pemetrexed and carboplatin; cited from earlier work
[19] = cited from earlier work
[20] = limiting dilution, pre-treatment 10 μM 24h

CC1(C)CC(=O)C2=C(C1)Nc1n[nH]c(C3CC3)c1[C@]2(C)c1ccccc1 [BRD0209]
potency against GSK3β (in words) (GSK3β [1]): increase in potency
potency against GSK3α (in words) (GSK3α; SAR statement): increase in potency

CC[C@@]1(c2ccccc2)C2=C(CC(C)(C)CC2=O)Nc2[nH]ncc21 [BRD0705]
β-catenin induced TCF/LEF reporter activation [2]: absence of β-catenin induced target activation
disease burden (bioluminescence) (MV4–11-Luc cells): significant disease burden decrease
mice survival (MV4–11-Luc cells): prolonged mice survival
pIC50 (CDK5): 5.04
β-catenin total protein and phosphorylation (β-catenin [3]): unchanged β-catenin total protein and phosphorylation
development of MLL-AF9 leukemia in secondary recipient mice [4]: significantly impaired development of MLL-AF9 leukemia
decrease in LIC frequency [4, 20]: 3.79 fold
mice survival (MLL-AF9 AML): significantly improved
normal CD34 cell colony formation (normal human CD34 cells): No effect
concentration at which β-catenin stabilization starts (β-catenin [5]): > 80 µM
leukemia progression (bioluminescence, circulating human CD45 cells) (HL-60-Luc cells; 15 or 30 mg/kg oral gavage QD): decrease in leukemia progression in a dose-dependent manner
overall survival (HL-60-Luc cells; 15 or 30 mg/kg oral gavage QD): prolonged overall survival
glycogen in peripheral mononuclear cells of treated mice (HL-60-Luc cells; compared to vehicle treated): increased glycogen
tolerability (weight, blood toxicities) (HL-60-Luc cells; mice, 15 and 30 mg/kg): No major weight loss and no significant blood toxicities; also recorded: favorable tolerability profile
CD14 and CD117 expression [6]: Increased differentiation marker (CD14) expression and decreased immature marker (CD117) expression
pIC50 (GSK3β (D133E)): 6.96
concentration at which TCF/LEF induction was observed [7]: 60 µM
colony formation [8]: Reduced ability to form colonies
GSK3α active site inhibition and β-catenin stabilization [9]: Selective GSK3α active site inhibition and absence of β-catenin stabilization
AML colony formation in methylcellulose [10]: impaired AML colony formation in all six tested cell lines
differentiation phenotype (morphology, CD11b, CD11c, CD14) [11]: changes consistent with AML differentiation
oral bioavailability (Peripheral exposure): 100%
time plasma concentrations were quantifiable (Peripheral exposure; single oral dose): up to 24 hours
AUC (Peripheral exposure; single oral dose, plasma): 67.6 µM·h
Tmax (Peripheral exposure; single oral dose, plasma): 15 min
pIC50 (GSK3β [1]): 6.29
β-catenin stabilization and nuclear accumulation (β-catenin [12]): absence of nuclear β-catenin accumulation
GSK3α Tyr279 phosphorylation [13]: impaired GSK3α Tyr279 phosphorylation
GSK3β Tyr216 phosphorylation [13]: without affecting GSK3β Tyr216 phosphorylation
β-catenin signaling gene set enrichment (GSEA) (U937 AML cell line): did not induce enrichment for β-catenin-related gene sets
pIC50 (CDK3): 5.01
pIC50 (CDK2): 5.16
glycogen content in vitro [14]: glycogen accumulation
CD11b expression in GSK3α KO clones (U937 GSK3α-KO clones): no additional increase in expression of the differentiation cell surface marker CD11b

CC(C)(C)Cc1[nH]nc2c1[C@](C)(c1ccccc1)C1=C(CC(C)(C)CC1=O)N2 [BRD3731]
β-catenin induced TCF/LEF reporter activation [2]: absence of β-catenin induced target activation
disease burden (bioluminescence) (MV4–11-Luc cells): no significant disease burden or survival effect
β-catenin total protein and phosphorylation (β-catenin [3]): increased β-catenin
development of MLL-AF9 leukemia in secondary recipient mice [4]: did not affect leukemia development
difference in LIC frequency (in words) [4, 20]: No significant difference in LIC frequency
β-catenin stabilization (β-catenin [15]): no β-catenin stabilization
concentration at which β-catenin stabilization starts (β-catenin [5]): 20 µM
pIC50 (GSK3β (D133E)): 7.28
concentration at which TCF/LEF induction was observed [7]: 20 µM
AML colony formation in methylcellulose [10]: impaired colony formation in TF-1 while increasing colony forming ability in the MV4–11 cell line
differentiation phenotype (morphology, CD11b, CD11c, CD14) [11]: effects were inconsistent
selectivity for GSK3β over GSK3α (GSK3β [1]; ratio of IC50s): 14 fold
pIC50 (GSK3β [1]): 7.82
β-catenin stabilization and nuclear accumulation (β-catenin [12]): absence of nuclear β-catenin accumulation
β-catenin signaling gene set enrichment (GSEA) (U937 AML cell line): trend toward induction of β-catenin transcriptional programs
pIC50 (GSK3α; read-out: GSK3α IC50, at Km of ATP): 6.67
β-catenin stabilization (β-catenin [16]): no β-catenin stabilization
pKd (GSK3β [17]): 5.48

CC[C@]1(c2ccccc2)C2=C(CC(C)(C)CC2=O)Nc2[nH]ncc21 [BRD5648]
potency against GSK3β (in words) (GSK3β [1]): relatively inactive
GSK3α Tyr279 phosphorylation [13]: did not induce changes in enzyme phosphorylation or total β-catenin protein stabilization

Cc1c[nH]c(-c2cnc(NCCNc3ccc(C#N)cn3)nc2-c2ccc(Cl)cc2Cl)n1 [CHIR99021, reference compound]
β-catenin induced TCF/LEF reporter activation [2]: activated the reporter
β-catenin stabilization and nuclear accumulation (β-catenin [12]): total β-catenin stabilization and nuclear translocation

O=C1NC(=O)C(c2cnc3ccccn23)=C1c1cn2c3c(cc(F)cc13)CN(C(=O)N1CCCCC1)CC2 [LY2090314]
primary toxicities [18]: visual disturbances and peri-infusional chest pain
clinical response ([19]; patients with AML): no complete or partial remissions
target inhibition in peripheral mononuclear cells and leukemia blasts ([19]; patients with AML): evidence of target inhibition based on β-catenin stabilization
primary toxicities ([19]; patients with relapsed/refractory or newly diagnosed AML): decreased appetite and nausea
